Source: ChEMBL document CHEMBL4840311, “Discovery of novel nitrogenous heterocyclic-containing quinoxaline-1,4-di-N-oxides as potent activator of autophagy in M.tb-infected macrophages” (Eur J Med Chem, 2021)
In brackets after ≈: the same amount, converted by molar mass.

Assays:
Vero = test: Cytotoxicity against African green monkey Vero cells assessed as reduction in cell viability measured after 72 hrs by MTT assay; format: cell-based; conditions: Chlorocebus sabaeus
[1] = system: Mycobacterium tuberculosis; test: Antimycobacterial activity against Mycobacterium tuberculosis H37Rv ATCC 27294 assessed as inhibition of bacterial growth measured after 5 days by microplate alamar blue assay; format: functional; conditions: H37Rv ATCC 27294, 120 h, time 5 day
[2] = Selectivity index, ratio of IC50 for African green monkey Vero cells measured after 72 hrs by MTT assay to MIC for antimycobacterial activity against Mycobacterium tuberculosis H37Rv ATCC 27294 assessed as inhibition of bacterial growth measured after 5 days by microplate alamar blue assay; format: toxicity; conditions: read-out: Selectivity Index
J774.A1 = test: Cytotoxicity against mouse J774.A1 cells assessed as reduction in cell viability measured after 72 hrs by MTT assay; format: cell-based; conditions: J774.A1, 72 h

Row | SMILES | IC50 (Vero) [µM] | MIC [1] [µg/mL] | selectivity ratio at 72 hrs [2] | IC50 (J774.A1) [µM]
1 | CC(=O)c1c(C)[n+]([O-])c2cc(F)c(F)cc2[n+]1[O-] | 22.4 | 2 (≈ 7.87 µM) | 2.8 | –
2 | CCOC(=O)c1c(C)[n+]([O-])c2cc(N3CCCCC3)c(F)cc2[n+]1[O-] | – | 32 (≈ 91.6 µM) | – | –
3 | CC(=O)c1c(C)[n+]([O-])c2cc(N3CCNCC3)ccc2[n+]1[O-] | – | 64 (≈ 212 µM) | – | –
4 | CC(=O)c1c(C)[n+]([O-])c2cc(N3CCNCC3)c(F)cc2[n+]1[O-] | – | 4 (≈ 12.5 µM) | – | –
5 | Cc1c(C(=O)OCc2ccccc2)[n+]([O-])c2cc(F)c(F)cc2[n+]1[O-] | 55.3 | 0.5 (≈ 1.44 µM) | 38.3 | –
6 | CCOC(=O)c1c(C)[n+]([O-])c2cc(N3CCCC3)c(F)cc2[n+]1[O-] | – | 64 (≈ 191 µM) | – | –
7 | CCOC(=O)c1c(C)[n+]([O-])c2cc(N3CCOCC3)c(F)cc2[n+]1[O-] | – | 64 (≈ 182 µM) | – | –
8 | CCOC(=O)c1c(C(F)(F)F)[n+]([O-])c2cc(-n3ccnc3)c(F)cc2[n+]1[O-] | 19.4 | 0.25 (≈ 0.647 µM) | 30 | –
9 | CCCC(=O)c1c(C)[n+]([O-])c2cc(F)c(F)cc2[n+]1[O-] | – | 8 (≈ 28.3 µM) | – | –
10 | CC(=O)c1c(C)[n+]([O-])c2cc(-n3ccnc3)c(F)cc2[n+]1[O-] | 95.7 | 0.5 (≈ 1.65 µM) | 46.4 | 77.7
11 | CC(=O)c1c(C(F)(F)F)[n+]([O-])c2cc(-n3ccnc3)c(F)cc2[n+]1[O-] | 46.5 | 0.25 (≈ 0.702 µM) | 66.2 | –
12 | CCOC(=O)c1c(C)[n+]([O-])c2cc(-n3ccnc3)c(F)cc2[n+]1[O-] | 129 | 0.25 (≈ 0.752 µM) | 172 | 77.7
13 | CCOC(=O)c1c(C)[n+]([O-])c2cc(-n3cncn3)c(F)cc2[n+]1[O-] | 155 | 0.125 (≈ 0.375 µM) | 412 | 77.7
14 | Cc1c(C(=O)OC(C)C)[n+]([O-])c2cc(F)c(-n3ccnc3)cc2[n+]1[O-] | 112 | 2 (≈ 5.78 µM) | 19.5 | 77.7
15 | CCOC(=O)c1c(C(F)(F)F)[n+]([O-])c2cc(N3CCNCC3)c(F)cc2[n+]1[O-] | 31.3 | 0.5 (≈ 1.24 µM) | 25.3 | –
16 | CCOC(=O)c1c(C)[n+]([O-])c2cc(N3CCNCC3)c(F)cc2[n+]1[O-] | – | 4 (≈ 11.4 µM) | – | –
